# Measured values: ChEMBL document CHEMBL1125971, “A concise synthesis of 12-(3'-hydroxy-n-propyl)-deoxoartemisinin” (Bioorg Med Chem Lett, 1991)
# Test system: Plasmodium falciparum
# Assay: In vitro antimalarial activity against Plasmodium falciparum
# Assay type: functional, organism-based
row,Structure (SMILES),IC50
1,C[C@@H]1CCC2[C@@H](C)CCO[C@@H]3O[C@]4(C)CCC1C23OO4 (some centres undefined),19 ng/mL
2,C[C@@H]1CCC2[C@@H](C)[C@H](CCCO)O[C@@H]3O[C@]4(C)CCC1C23OO4 (some centres undefined),0.23 ng/mL
3,C[C@@H]1CCC2[C@@H](C)C(=O)O[C@@H]3O[C@]4(C)CCC1C23OO4 (some centres undefined),1.21 ng/mL
4,C[C@@H]1CCC2[C@@H](C)CO[C@@H]3O[C@]4(C)CCC1C23OO4 (some centres undefined),0.15 ng/mL
